One experiment has as its system mouse splenocytes. As to conditions: read-out: IC50 value, inhibition of SDF-1-induced migration of mouse splenocytes; SDF-1α 100 ng/mL; 2.5 hours.
Experiment [1] has as its system Jurkat human T lymphocyte cell lines. The conditions noted are these: read-out: IC50 value, inhibition of SDF-1α-induced Jurkat cell migration; SDF-1α 1 ng/mL; 4 hours.
Description: RPMI-1640 and fetal calf serum (FCS) was purchased from BioWhittaker, penicillin-streptomycin solution, RPMI-1640 (without phenol red) and HEPES from Invitrogen, BSA from Sigma, and, human SDF-1α (CXCL12) from Genzyme. Jurkat human T lymphocyte cell lines were purchased from ATCC and incubated in RPMI-1640 10% FCS.
Using 24-wells Transwell (Costar, polycarbonate membrane, pore size 5 μm), migrating reaction was performed. 600 μL of SDF-1α (final concentration 1 ng/mL) was added to the lower layer of Transwell, 5×10^5 cells (200 μL) was added to the insert, and was reacted at 37° C. for 4 hours. The cells were pre-incubated with drugs at 37° C. for 30 minutes. The migrating reaction was made in RPMI-1640 culture media containing 20 mmol/L HEPES, 0.5% BSA. The cells migrated to the lower layer were recovered, and the number of the cells was counted by Coulter Counter. The inhibitory rate (%) against the migration by the drug of each concentration was calculated by the following formula, and IC50 value was calculated from such inhibitory rate.
For experiment [2], the system named is MDA-MB-231 human breast cancer cells. Description: Anti-metastatic activity, MDA-MB-231 cells implanted i.v. in SCID mice, lung metastasis. The experiment is classed as in vivo, CB-17 SCID mice. As to conditions: 18.2 mg/kg/day by Alzet osmotic pump, 28 days after implantation. How it is done:
MDA-MB-231 human breast cancer cells (10^6 cells) were implanted intravenously into the tails of five week-old female CB-17 SCID mice (Crea Japan, Inc.). 4Fbenzoyl-TN-14003 was prepared at 80 mg/mL in physiologic saline solution, was included into sustained-releasing osmotic pumps (Alzet pump, Alza Corporation, usable for 2 week sustained-release; the dose was equivalent to 18.2 mg/kg/day), and was intradermally loaded to the backs of the mice on the date immediately preceding the implantation. Further, 14 days after the implantation, Alzet pumps containing an equal dose of the drug were additionally loaded. To the control group, Alzet pumps injected with physiological saline solution were additionally loaded. 28 days after the implantation, the mice were dissected, about 2 mL of 0.2% Evans' Blue solution was injected through windpipes, and lungs were stained. The lungs were taken out, soaked in Bouin's liquid, stained and fixed. […] In the lungs of the control group, the yellow stained portions were evenly seen, and lung metastasis was observed. On the other hand, in the 4Fbenzoyl-TN-14003 administration group, yellow stained specimens were less.

In experiment [3] the test system is mouse DTH reaction induced by SRBC. Put plainly: Mouse delayed-type hypersensitivity reaction (DTH) induced by SRBC. The format is in vivo, BALB/c mice. As to conditions: Alzet osmotic pump. How it is done:
Preserved blood of sheep was purchased from Nippon Bio-Supp. Center. The preserved sheep blood was cleansed twice in physiological saline solution, suspended in physiological saline solution, and used as sheep red blood cells (SRBC). As OD541 nm value of oxyhemoglobin at the time of hemolyzation of 1.0×10^9 cells/mL of the SRBC suspension by 14 parts distilled water is considered to be nearly 0.700, SRBC density was accordingly fixed.
2×10^7 cells/50 μl of SRBC were administered subcutaneously to the ankles of the left hindlimbs of BALB/c mice (male, 6 week-old, Charles River Japan, Inc.) and sensitized. After 5 days, 10^8 cells/50 μl of SRBC were administered subcutaneously to the ankles of the right hindlimbs and DTH reaction was induced. Immediately prior to and 24 hours after the induction of antigens, the thickness of the ankles of the right hindlimbs was measured by a digital micrometer (Mitutoyo Corporation CD-15B), and the increase (mm) in the thickness of ankles was adopted as the indicator of DTH reaction.
4Fbenzoyl-TN14003 was dissolved to PBS, and continuously administered using Alzet osmotic pumps (Alza, 0.5 μL/hr, 7 days persistent type). The osmotic pumps were implanted intradermally to the backs under ether anesthesia on the day before the sensitization. As the control, pumps injected with PBS were similarly implanted. 4F-benzoyl-TN14003 was administered at the doses of 4.8, 24 and 120 μg/day.
Data were expressed as mean value±standard margin of error (n=7). By Williams test, p≦0.025 was valued as significant.

The target of another experiment is T1, CXCR4 receptor (Homo sapiens, UniProt P61073).
T1 construct: 50 μL of Jurkat human T-cell leukemia cells (6×10^6 cells/mL) suspended in buffer; endogenous in cells; host or cells: Jurkat human T-cell leukemia cells
T1 sequence (P61073 whole entry): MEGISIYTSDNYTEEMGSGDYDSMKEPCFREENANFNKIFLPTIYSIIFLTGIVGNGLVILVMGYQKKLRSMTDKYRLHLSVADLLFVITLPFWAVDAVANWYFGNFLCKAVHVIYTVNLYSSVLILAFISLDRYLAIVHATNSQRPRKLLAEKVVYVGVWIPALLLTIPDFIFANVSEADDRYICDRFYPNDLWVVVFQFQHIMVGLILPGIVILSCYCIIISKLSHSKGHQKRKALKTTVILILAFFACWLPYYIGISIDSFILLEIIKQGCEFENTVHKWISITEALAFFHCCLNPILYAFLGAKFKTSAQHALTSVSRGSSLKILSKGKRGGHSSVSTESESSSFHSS
Description: Inhibition of 125I-CXCL12 binding to CXCR4 receptor on Jurkat cells. As to conditions: Table 1, 125I-CXCL12, 1 hour at room temperature, compounds as acetate salt, read-out: IC50 (nM), inhibitory activity against CXCL12 binding to CXCR4 receptor.

Experiment [4] concerns mouse collagen-induced arthritis. Description: Mouse collagen-induced arthritis. The experiment is classed as in vivo, DBA/1JN mouse. As to conditions: 120 μg/day, Alzet osmotic pump, 2 weeks. How it is done:
FK-506 was purified by a known method (Kino T. et al., J. Antibiot., 1987 40(9): 1249-55). […] For 2 weeks after the additional immunization, body weights and hindlimb thickness were measured and arthritis scoring was made. Arthritis scores were scored at 0-3 points of each limb, and evaluated by the total of the same (12 points being the full points; 0, normal; 1, mild swelling or swelling of a single digit; 2, moderate swelling or swelling of plural digits; 3, severe swelling). Two weeks after the immunization, four limbs and sera were picked. After coat blocking bovine type II collagen (10 μg/mL PBS solution) on the immunoplate, 100 μL of 1000 times diluted mouse serum was added, and kept at room temperature for 2 hours. After cleansing, anti-mouse IgG2a antibody (1000 times dilution) was added. After cleansing, TMB was added, kept at room temperature for 30 minutes, H2SO4 of equal amount was added, and A450 nm was measured. Indomethacin (1 mg/kg), methotrexate (3 mg/kg) and FK-506 (10 mg/kg) were suspended to 0.5% methyl cellulose, and orally administered every day for 2 weeks from the day of the additional immunization at the dose of 0.1 mL/10 g body weight. 0.5% methyl cellulose solution of the equal dose was orally administered to the control group. 4Fbenzoyl-TN14003 was dissolved to PBS, and continuously administered using Alzet osmotic pumps (Alza, 0.5 μL/hr 2 weeks). The osmotic pumps were implanted intradermally to the backs of the mice under ether anesthesia on the day before the additional immunization. As the control, pumps injected with PBS were similarly implanted. Evaluation of each drug was made for the value obtained 2 weeks after the additional immunization. Data were expressed as mean value±standard margin of error (n=8-12). Comparison between 2 groups was made by Student's t-test, p≦0.05 was valued as significant. Multiple comparison was made by Dunnett test, p≦0.05 was valued as significant.

Bridge positions count the residues as written; N and C are the ends. Square brackets hold non-standard residues; d marks the D form. Peptide text beside a SMILES is read from it. * marks the point of attachment. 2Nal = N[C@@H](Cc1ccc2ccccc2c1)C(=O)O; Benzoyl(4-F) = O=C(c1ccc(F)cc1)*; Cit = NC(=O)NCCC[C@H](N)C(=O)O

Description for CXCR4 receptor: After reaction, suction was made toward the reaction solution by 96 well GF/C filter plate, and each well's radioactivity was measured by top count. As the radioactivity index of 100% when the test compound was not added, and 0% when 100 nM of non-radioisotope-labeled CXCL12 was added, the inhibitory activity of each test compound was measured.
Description for mouse splenocytes: Spleens were isolated from BALB/c mice (male, Charles River Japan, Inc.), converted to single cell suspensions, and splenocytes were prepared by crushing red blood cells.
SDF-1α (Peprotech, final concentration 100 ng/mL) was added to the lower layer of Transwell (pore size 5 μm), 1×10^6/well of the cells (100 μL) were added to the insert, and reacted at 37° C. for 2.5 hours. The cells were incubated with the drug at 37° C. for 30 minutes. Migrating reaction was made in the RPMI-1640 culture media containing 20 mmol/L HEPES, 0.5% BSA. The number of the cells migrated to the lower layer was counted by Coulter Counter. Similarly to the preceding clause, the inhibitory rate against the migration by the drug of each concentration and IC50 value were calculated.

On to `N=C(N)NCCC[C@H](NC(=O)[C@@H]1CSSC[C@H](NC(=O)[C@H](Cc2ccc3ccccc3c2)NC(=O)[C@H](CCCNC(=N)N)NC(=O)[C@H](CCCNC(=N)N)NC(=O)c2ccc(F)cc2)C(=O)N[C@@H](Cc2ccc(O)cc2)C(=O)N[C@@H](CCCNC(N)=O)C(=O)N[C@@H](CCCCN)C(=O)N[C@H](CCCCN)C(=O)N2CCC[C@H]2C(=O)N[C@@H](Cc2ccc(O)cc2)C(=O)N[C@@H](CCCNC(=N)N)C(=O)N[C@@H](CCCNC(N)=O)C(=O)N1)C(N)=O` [4F-benzoyl-TN14003, 4F-benzoyl-Arg-Arg-Nal-Cys-Tyr-Cit-Lys-DLys-Pro-Tyr-Arg-Cit-Cys-Arg-NH2] ({Benzoyl(4-F)}-RR[2Nal]CY[Cit]K[dK]PYR[Cit]CR-NH2; disulfide 4-13), for which the IC50 worked out at 0.54 nM in the experiment on mouse splenocytes, 0.65 nM in experiment [1] and 0.99 nM on CXCR4 receptor. In addition, the “lung metastasis (eye observation of metastatic focus)” value in experiment [2] is “the metastasis was inhibited”. For the same compound, the “inhibitory rate of footpad edema (DTH)” value in experiment [3] (4.8 μg/day) was 9%; in experiment [3] (24 μg/day), 31%; in experiment [3] (120 μg/day), 51%. Moreover, the arthritis score result in experiment [4] is reported as “significant inhibitory activity”. The body weight loss result in experiment [4] is on record as “significant inhibitory activity”. For the same compound, the hindlimb swelling result in experiment [4] is on record as “significant inhibitory activity”. Moreover, the “increase of anti-type II collagen specific IgG2a antibody value” in experiment [4] was “inhibitory tendency”.

The values above are taken from patent publication US8017585B2, “CXCR4 antagonist and use thereof” (priority 2002, dated 2011).
